IC50 data for 15 compounds are collected here from US20260055121A1, “TYK2 INHIBITORS AND USES THEREOF” (Sudo Biosciences Limited, priority 2022, published 2026).

Experiment [1] addresses T1, TYK2 Pseudokinase (JH2) (Homo sapiens, UniProt P29597).
T1 construct: HEK-Blue™ IL-23 and IFNα/0 cells with a stably-integrated cytokine receptor and STAT3 or STAT1; endogenous in cells; host or cells: HEK-Blue IL-23 and HEK-Blue IFNα/β reporter cells
Briefly: HEK-Blue IFNα/β reporter assay (STAT1-inducible SEAP) for profiling TYK2 pseudokinase (JH2) inhibition. Type of experiment: cell-based. As to conditions: HEK-Blue IFNα/β cells, 1 ng/mL human recombinant IFNα, SEAP readout. How it is done:
(§1) HEK-Blue™ IL-23 and IFNα/0 cells with a stably-integrated cytokine receptor and STAT3 or STAT1 express STAT-inducible secreted embryonic alkaline phosphatase (SEAP) reporter gene upon cytokine stimulation. These cells are plated in DMEM (Gibco) containing 10% heat-inactivated FBS (Gibco) and 100 U/mL PenStrep (Gibco) at 37° C. under 5% CO2 conditions for 20-22 hours. The cells are then pretreated with serially diluted test compounds for 60 min prior to stimulation with either 10 ng/mL human recombinant IL-23 (Miltenyl Biotech) or 1 ng/mL human recombinant IFNα (InvivoGen) for 22-24 hours for IL-23 or 16-18 h for IFNα. SEAP induction is measured using the QUANTI Blue™ Solution (InvivoGen) according to the manufacturer's instructions.

The target of experiment [2] is T1, TYK2 Pseudokinase (JH2). Briefly: HEK-Blue IL-23 reporter assay (STAT3-inducible SEAP) for profiling TYK2 pseudokinase (JH2) inhibition. It is filed as cell-based. As to conditions: HEK-Blue IL-23 cells, 10 ng/mL human recombinant IL-23, SEAP readout; read-out: IL23. How it is done:
as §1

In a further experiment the target is T2, JAK1-JH1 (Homo sapiens, UniProt P23458).
T2 construct: recombinant purified His or GST-tagged catalytic domain for each enzyme; made in house
T2 sequence (P23458 875-1153 limits assumed): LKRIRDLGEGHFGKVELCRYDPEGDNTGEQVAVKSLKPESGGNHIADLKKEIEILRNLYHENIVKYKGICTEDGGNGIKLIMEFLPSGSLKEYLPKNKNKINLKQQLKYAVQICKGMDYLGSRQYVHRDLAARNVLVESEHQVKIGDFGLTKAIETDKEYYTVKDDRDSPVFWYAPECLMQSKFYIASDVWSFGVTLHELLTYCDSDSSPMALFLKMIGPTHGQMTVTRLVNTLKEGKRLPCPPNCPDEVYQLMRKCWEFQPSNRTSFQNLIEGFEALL
Briefly: HTRF-based selectivity assay, JAK1 catalytic domain. Type of experiment: biochemical. As to conditions: kinase domain (JH1), 21.43 μM ATP. How it is done: The ability of compounds to inhibit the activity of JAK1, JAK2, JAK3 and TYK2 is measured using a recombinant purified His or GST-tagged catalytic domain for each enzyme (JAK1, JAK2 and TYK2 are generated in-house; JAK3 was purchased from Carna biosciences, Cat #08-046) in an HTRF format biochemical assay. The reactions employs a commercial peptide substrate from Cisbio (Cat #62TK0PEC). The basic assay protocol is as follows: first, 2.5 μL of diluted compounds (4×) in DMSO are dispensed into a 384-well Optiplate. Next, 2.5 μL of enzyme (final concentrations for enzymes are: TYK2- 700 ng/mL, JAK1- 80.6 ng/mL, JAK2- 2.1 ng/mL and JAK3- 171.8 ng/mL) is added and incubated at RT for 5-20 min. Finally, 5 μl of mixture of 2×ATP [Final concentration 20 μM for TYK2, 21.43 μM for JAK1, 14.7 μM for JAK2 and 2.12 μM for JAK3]^+2× Substrate [Final concentration 217 nM for TYK2, 454.7 nM for JAK1, 200 nM for JAK2 and 257.4 nM for JAK3] is added to 384 well Optiplate. Composition of Kinase assay buffer used in the assay is as follows: HEPES 50 mM, EGTA 1 mM, MgCl2 10 mM, DTT 2 mM, Tween-20 0.01% and water. Then the plates are shaken and then incubated at 26.5° C. for 60 min.

For the next experiment, the system named is IL-2. Description: HEK-Blue IL-2 reporter assay (STAT5-inducible SEAP) for determining selectivity. It is filed as cell-based. To be noted: HEK-Blue IL-2 reporter cells, 4 ng/mL human recombinant IL-2, SEAP readout. How it is done: (§2) HEK-Blue™ IL-2 and IFNγ reporter cells with a stably-integrated cytokine receptor and STAT5 or STAT1 express STAT-inducible secreted embryonic alkaline phosphatase (SEAP) reporter gene upon cytokine stimulation. These cells were plated in DMEM (Gibco) containing 10% heat-inactivated FBS (Gibco) and 100 U/mL PenStrep (Gibco) at 37° C. under 5% CO2 conditions for 20-22 hours. The cells were then pretreated with serially diluted test compounds for 60 min prior to stimulation with either 4 ng/mL human recombinant TL-2 (Miltenyl Biotech) or 50 ng/mL human recombinant IFNγ (InvivoGen) for 24 hours. SEAP induction was measured using the QUANTI-Blue™ Solution (InvivoGen) according to the manufacturer's instructions.

Another experiment deals with IFN-γ. Description: HEK-Blue IFNγ reporter assay (STAT1-inducible SEAP) for determining selectivity. Type of experiment: cell-based. As to conditions: HEK-Blue IFNγ reporter cells, 50 ng/mL human recombinant IFNγ, SEAP readout. How it is done:
as §2

T1 sequence (P29597 whole entry): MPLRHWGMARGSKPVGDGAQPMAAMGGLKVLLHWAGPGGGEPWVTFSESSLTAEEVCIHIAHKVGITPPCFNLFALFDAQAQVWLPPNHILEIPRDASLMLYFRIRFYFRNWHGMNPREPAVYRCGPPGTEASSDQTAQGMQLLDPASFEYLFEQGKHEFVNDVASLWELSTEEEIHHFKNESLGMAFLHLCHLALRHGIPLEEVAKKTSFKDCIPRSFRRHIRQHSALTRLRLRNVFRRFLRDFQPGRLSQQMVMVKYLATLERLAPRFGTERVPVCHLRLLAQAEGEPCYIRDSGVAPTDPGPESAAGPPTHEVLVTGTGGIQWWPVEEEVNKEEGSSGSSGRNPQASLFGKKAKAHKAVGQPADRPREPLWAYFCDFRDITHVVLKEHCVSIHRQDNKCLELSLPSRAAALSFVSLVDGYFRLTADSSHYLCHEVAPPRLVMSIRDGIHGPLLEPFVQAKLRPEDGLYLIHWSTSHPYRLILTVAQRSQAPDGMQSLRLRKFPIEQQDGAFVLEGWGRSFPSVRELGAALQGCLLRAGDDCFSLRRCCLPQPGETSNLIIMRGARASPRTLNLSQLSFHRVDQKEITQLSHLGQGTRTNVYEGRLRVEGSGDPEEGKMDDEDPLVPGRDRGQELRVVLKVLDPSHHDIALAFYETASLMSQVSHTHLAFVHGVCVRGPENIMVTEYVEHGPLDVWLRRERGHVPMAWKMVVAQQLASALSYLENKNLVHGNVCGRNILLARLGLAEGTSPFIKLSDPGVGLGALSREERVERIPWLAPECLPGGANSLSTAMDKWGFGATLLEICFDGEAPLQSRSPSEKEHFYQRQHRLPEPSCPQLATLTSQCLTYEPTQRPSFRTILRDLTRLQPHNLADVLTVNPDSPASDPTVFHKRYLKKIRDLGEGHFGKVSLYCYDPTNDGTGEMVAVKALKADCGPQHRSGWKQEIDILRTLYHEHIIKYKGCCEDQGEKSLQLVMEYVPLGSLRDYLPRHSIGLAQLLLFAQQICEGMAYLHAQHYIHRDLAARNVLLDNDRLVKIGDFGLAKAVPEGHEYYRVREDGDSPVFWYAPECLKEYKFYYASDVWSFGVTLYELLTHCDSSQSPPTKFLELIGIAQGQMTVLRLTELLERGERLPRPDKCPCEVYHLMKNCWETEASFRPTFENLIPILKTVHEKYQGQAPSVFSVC

Consider `CCONC(=O)c1nnc(NC(=O)C2CC2)cc1Nc1nccc2c1N(C)[C@@H](C)c1nn(C)nc1-2` (single isomer, unassigned) [Compound 16], for which the IC50 at TYK2 Pseudokinase (JH2) [1] and on TYK2 Pseudokinase (JH2) [2] was below 30 nM in each case.

For the compound `Cn1cc2c(n1)-c1cccc(Nc3cc(NC(=O)C4CC4)nc4[nH]n(C)c(=O)c34)c1OC2` [Compound 1, N-(2-methyl-4-((2-methyl-2,4-dihydrochromeno[4,3-c]pyrazol-6-yl)amino)-3-oxo-2,3-dihydro-1H-pyrazolo[3,4-b]pyridin-6-yl)cyclopropanecarboxamide], the IC50 on JAK1-JH1 was above 1000 nM; at TYK2 Pseudokinase (JH2) [2], 300 to 1000 nM.

Consider `CN1Cc2cn(C)nc2-c2cccc(Nc3cc(NC(=O)C4CC4)nc4[nH]n(C)c(=O)c34)c21` [Compound 2, N-(4-((2,5-dimethyl-4,5-dihydro-2H-pyrazolo[4,3-c]quinolin-6-yl)amino)-2-methyl-3-oxo-2,3-dihydro-1H-pyrazolo[3,4-b]pyridin-6-yl)cyclopropanecarboxamide], for which the values for the IC50 against JAK1-JH1, at TYK2 Pseudokinase (JH2) [1] and on TYK2 Pseudokinase (JH2) [2] were above 1000 nM, below 30 nM and below 30 nM, respectively.

For the compound `Cc1nc2n(n1)-c1cccc(Nc3cc(NC(=O)C4CC4)nc4[nH]n(C)c(=O)c34)c1N(C)[C@H]2C` [Compound 3, (S)—N-(2-methyl-3-oxo-4-((2,4,5-trimethyl-4,5-dihydro-[1,2,4]triazolo[1,5-a]quinoxalin-6-yl)amino)-2,3-dihydro-1H-pyrazolo[3,4-b]pyridin-6-yl)cyclopropanecarboxamide], the IC50 is above 1000 nM in the experiment with IL-2, 30 to 300 nM at TYK2 Pseudokinase (JH2) [1], below 30 nM on TYK2 Pseudokinase (JH2) [2] and above 1000 nM in the experiment with IFN-γ.

`[2H]C([2H])([2H])NC(=O)c1c(Nc2cccc3c2N(C)[C@@H](C)c2nc(C)nn2-3)cc(NC(=O)C2CC2)nc1N` [Compound 4, (S)-2-amino-6-(cyclopropanecarboxamido)-N-(methyl-d3)-4-((2,4,5-trimethyl-4,5-dihydro-[1,2,4]triazolo[1,5-a]quinoxalin-6-yl)amino)nicotinamide]: the IC50 at TYK2 Pseudokinase (JH2) [1] and at TYK2 Pseudokinase (JH2) [2] was above 1000 nM each time.

Consider `CNC(=O)c1cnc2[nH]ccc2c1Nc1cccc2c1N(C)CCn1cnnc1-2` [Compound 6, N-methyl-4-((7-methyl-6,7-dihydro-5H-benzo[f][1,2,4]triazolo[4,3-d][1,4]diazepin-8-yl)amino)-1H-pyrrolo[2,3-b]pyridine-5-carboxamide], for which the IC50 on TYK2 Pseudokinase (JH2) [1] and on TYK2 Pseudokinase (JH2) [2] was above 1000 nM each time.

Take `CNC(=O)c1cnc2[nH]ccc2c1Nc1cccc2c1N(C)Cc1cn(C)nc1-2` [Compound 7, 4-((2,5-dimethyl-4,5-dihydro-2H-pyrazolo[4,3-c]quinolin-6-yl)amino)-N-methyl-1H-pyrrolo[2,3-b]pyridine-5-carboxamide]: the IC50 at TYK2 Pseudokinase (JH2) [1] and on TYK2 Pseudokinase (JH2) [2] was above 1000 nM each time.

With `CONC(=O)c1cnc(NC(=O)C2CC2)cc1Nc1cccc2c1N(C)[C@@H](C)c1nc(C)nn1-2` [Compound 8, (S)-6-(cyclopropanecarboxamido)-N-methoxy-4-((2,4,5-trimethyl-4,5-dihydro-[1,2,4]triazolo[1,5-a]quinoxalin-6-yl)amino)nicotinamide], the IC50 is 30 to 300 nM at TYK2 Pseudokinase (JH2) [1] and below 30 nM at TYK2 Pseudokinase (JH2) [2].

Turning to `CCONC(=O)c1cnc(NC(=O)C2CC2)cc1Nc1cccc2c1N(C)[C@@H](C)c1nc(C)nn1-2` [Compound 9, (S)-6-(cyclopropanecarboxamido)-N-ethoxy-4-((2,4,5-trimethyl-4,5-dihydro-[1,2,4]triazolo[1,5-a]quinoxalin-6-yl)amino)nicotinamide], the IC50 at TYK2 Pseudokinase (JH2) [1] and at TYK2 Pseudokinase (JH2) [2] was below 30 nM in each case.

For the compound `CONC(=O)c1nnc(NC(=O)C2CC2)cc1Nc1cccc2c1N(C)[C@@H](C)c1nc(C)nn1-2` [Compound 10, (S)-6-(cyclopropanecarboxamido)-N-methoxy-4-((2,4,5-trimethyl-4,5-dihydro-[1,2,4]triazolo[1,5-a]quinoxalin-6-yl)amino)pyridazine-3-carboxamide], the values for the IC50 at TYK2 Pseudokinase (JH2) [1] and on TYK2 Pseudokinase (JH2) [2] were 30 to 300 nM and below 30 nM, respectively.

For the compound `CONC(=O)c1nnc(Nc2ccc(F)cn2)cc1Nc1cccc2c1N(C)[C@@H](C)c1nc(C)nn1-2` [Compound 11, (S)-6-((5-fluoropyridin-2-yl)amino)-N-methoxy-4-((2,4,5-trimethyl-4,5-dihydro-[1,2,4]triazolo[1,5-a]quinoxalin-6-yl)amino)pyridazine-3-carboxamide], the IC50 on TYK2 Pseudokinase (JH2) [1] and on TYK2 Pseudokinase (JH2) [2] was below 30 nM each time.

Consider `CONC(=O)c1nnc(Nc2cc(C)nc(C)n2)cc1Nc1cccc2c1N(C)[C@@H](C)c1nc(C)nn1-2` [Compound 12, (S)-6-((2,6-dimethylpyrimidin-4-yl)amino)-N-methoxy-4-((2,4,5-trimethyl-4,5-dihydro-[1,2,4]triazolo[1,5-a]quinoxalin-6-yl)amino)pyridazine-3-carboxamide], for which the IC50 at TYK2 Pseudokinase (JH2) [1] and on TYK2 Pseudokinase (JH2) [2] was below 30 nM each time.

In the case of `CCONC(=O)c1nnc(NC(=O)C2CC2)cc1Nc1cccc2c1N(C)[C@@H](C)c1nc(C)nn1-2` [Compound 13, (S)-6-(cyclopropanecarboxamido)-N-ethoxy-4-((2,4,5-trimethyl-4,5-dihydro-[1,2,4]triazolo[1,5-a]quinoxalin-6-yl)amino)pyridazine-3-carboxamide], the results for the IC50 on TYK2 Pseudokinase (JH2) [1] and at TYK2 Pseudokinase (JH2) [2] were 30 to 300 nM and below 30 nM, respectively.

In the case of `CCONC(=O)c1nnc(Nc2cc(C)nc(C)n2)cc1Nc1cccc2c1N(C)[C@@H](C)c1nc(C)nn1-2` [Compound 14, (S)-6-((2,6-dimethylpyrimidin-4-yl)amino)-N-ethoxy-4-((2,4,5-trimethyl-4,5-dihydro-[1,2,4]triazolo[1,5-a]quinoxalin-6-yl)amino)pyridazine-3-carboxamide], the IC50 at TYK2 Pseudokinase (JH2) [1] and at TYK2 Pseudokinase (JH2) [2] was below 30 nM in each case.

For `CCONC(=O)c1nnc(Nc2ccc(F)cn2)cc1Nc1cccc2c1N(C)[C@@H](C)c1nc(C)nn1-2` [Compound 15, (S)—N-ethoxy-6-((5-fluoropyridin-2-yl)amino)-4-((2,4,5-trimethyl-4,5-dihydro-[1,2,4]triazolo[1,5-a]quinoxalin-6-yl)amino)pyridazine-3-carboxamide], the IC50 on TYK2 Pseudokinase (JH2) [1] and at TYK2 Pseudokinase (JH2) [2] was below 30 nM each time.
